Assay results from PMC6216040, “Repurposing of an old drug: In vitro and in vivo efficacies of buparvaquone against Echinococcus multilocularis” (International Journal for Parasitology: Drugs and Drug …, 2018).
≈ marks a conversion by molar mass, not a printed value. Where two headings read alike, the source gives them in different places.

How the values were obtained:
[1] = test system: E. multilocularis metacestodes; test: PGI-assay: drug-induced damage on in vitro cultured metacestodes (Pathogen Box screening cascade and EC50); type: cell-based, Echinococcus multilocularis; settings: for activity against metacestodes at 1 μM / PGI release, % of Tx-100 control, average, 5d / PGI release, % of Tx-100 control, average, 12d: triplicates; for PGI release, % of Tx-100 control, average, 5d / PGI release, % of Tx-100 control, average, 12d: 1 µM; for activity in the screen at 10 μM (confirmed in triplicates, >20% relative PGI release): 5 and 12 days; for toxicity against E. multilocularis metacestodes compared with host cells (HFF, RH): comparison of EC50 with IC50 on mammalian cells; for activity in the screen at 10 μM (confirmed in triplicates, >20% relative PGI release) / activity in the present in vitro screen (threshold 20% relative activity compared to Tx-100): 10 μM
[2] = test system: E. multilocularis metacestodes; test: Vesicle viability assay by Alamar Blue (MIC); type: cell-based, Echinococcus multilocularis; settings: Echinococcus multilocularis, 288 h, read-out: E. multilocularis MIC, Alamar Blue vesicle viability assay, 12 days of incubation
Protocol: The setup was the same as for PGI-assay EC50 calculations and it was performed in triplicates. […] Data was used to calculate the minimal inhibitory concentrations (MICs) of these compounds on metacestodes.

[3] = test system: Reuber rat hepatoma (RH) cells; test: Cytotoxicity by Alamar Blue assay in rat hepatoma cells; type: cell-based; settings: 120 h
[4] = test system: human foreskin fibroblasts (HFF); test: Cytotoxicity by Alamar Blue assay in human foreskin fibroblasts; settings: for IC50: Homo sapiens, Fibroblast, 120 h
E. granulosus = test system: E. granulosus; set-up: method as in Kammerer and Perez-Esandi, 1975; Miyaji et al., 1993; settings: ref Kammerer and Perez-Esandi, 1975; Miyaji et al., 1993; cited from earlier work
[5] = Echinococcus multilocularis, 120 h, read-out: PGI release, % of Tx-100 control, average, 5d
[6] = Echinococcus multilocularis, 120 h, read-out: PGI release, % of the Tx-100 control, 5d
[7] = Echinococcus multilocularis, 288 h, read-out: PGI release, % of Tx-100 control, average, 12d
[8] = Echinococcus multilocularis, 288 h, read-out: PGI release, % of the Tx-100 control, 12d
[9] = read-out: HFF preconfluent IC50

Compound | activity against metacestodes at 1 μM [1] | PGI release, % of Tx-100 control, average, 5d ([1]; 5 days of incubation) [%] | PGI release, % of Tx-100 control, average, 12d ([1]; 12 days of incubation) [%] | activity in the screen at 10 μM (confirmed in triplicates, >20% relative PGI release) [1] | cytotoxicity at 10 µM [1, 5] [%] | cytotoxicity at 10 µM [1, 6] [%] | cytotoxicity at 10 µM [1, 7] [%] | cytotoxicity at 10 µM [1, 8] [%] | toxicity against E. multilocularis metacestodes compared with host cells (HFF, RH) [1] | MIC [2] [µM] | IC50 ([3]; read-out: RH confluent IC50) [µM] | IC50 ([3]; read-out: RH preconfluent IC50) [µM] | IC50 ([4]; read-out: HFF confluent IC50) [µM] | IC50 [4, 9] [µM] | activity in the present in vitro screen (threshold 20% relative activity compared to Tx-100) [1] | effect in vivo against E. granulosus (E. granulosus) | other results
O=C(Nc1cc(C(F)(F)F)cc(C(F)(F)F)c1)c1cc(Cl)ccc1O [MMV687807] | distinct in vitro activities | 40.83 | 59.00 | active | 58.5 | 30.8 | 74.5 | 64.7 | could only exhibit a potential therapeutic window for RH cells | < 1 | 20.1 | 1.27 | 0.37 | 0.15 | – | – | toxicity against HFF (in words) ([4]; among the four compounds): highest toxicity against HFF
c1ccc(-c2nc(NC3CCCCC3)cc(C3CC3)n2)nc1 [MMV021013] | distinct in vitro activities | 3.92 | 24.95 | active | 37.8 | 34.8 | 42.3 | 92 | as toxic to host cells as it was to E. multilocularis metacestodes | 20 (≈ 5.89 µg/mL) | 2.07 | 1.1 | 53.1 | 5.14 | – | – | EC50 ([1]; Echinococcus multilocularis, 120 h, read-out: E. multilocularis EC50, PGI-assay, 5 days in vitro): 15.8 µM
N=C(N)c1ccc(OCCCCCOc2ccc(C(=N)N)cc2)cc1 [MMV000062, Pentamidine, reference compound] | – | – | – | – | – | – | – | – | – | – | – | – | – | – | inactive | did not show any effects | cytotoxicity at 10 µM ([1]; Echinococcus multilocularis, 120 h, 10 µM, singlets, 5 days of incubation, read-out: PGI release, % of the Tx-100 control, 5d): -1%; cytotoxicity at 10 µM ([1]; Echinococcus multilocularis, 288 h, 10 µM, singlets, 12 days of incubation, read-out: PGI release, % of the Tx-100 control, 12d): -1.06%
NCCC[C@](N)(C(=O)O)C(F)F [MMV001625, alpha-Difluoromethylornithine, reference compound] | – | – | – | – | – | – | – | – | – | – | – | – | – | – | inactive | did not show any effects | PGI release, % of the Tx-100 control, 5d ([1]; 10 µM, singlets, 5 days of incubation): -0.43%; PGI release, % of the Tx-100 control, 12d ([1]; 10 µM, singlets, 12 days of incubation): -0.93%
